Like-named read-outs stand apart in the source and are kept apart here.
What was measured:
[1] = Pharmacokinetics of tapentadol release following PO administration of prodrugs or tapentadol to rats; format: in vivo, rat
Description: Saline solutions of Compound TP-1 (which can be prepared as described in the examples herein) were dosed as indicated in Table 1 via oral gavage into 4 jugular vein-cannulated male Sprague Dawley rats that had been fasted for 16-18 hr prior to oral dosing. At specified time points, blood samples were drawn, harvested for plasma via centrifugation at 5,400 rpm at 4° C. for 5 min, and 100 microliters (μl) plasma transferred from each sample into a fresh tube containing 2 μl of 50% formic acid. The tubes were vortexed for 5-10 seconds, immediately placed in dry ice and then stored in a −80° C. freezer until analysis by HPLC/MS.
Saline solutions of Compounds TP-1, TP-3, TP-4, (which can be prepared as described in the examples herein) or tapentadol were dosed in approximately equimole amounts as indicated in Table 6. Dose administration, sampling and analysis procedures were as described in Example 11.
Dosing, sampling and analysis procedures were as described in Example 11.

[2] = Pharmacokinetics following PO administration to dogs; format: in vivo, dog; conditions: approximately equimole amounts
Description: Purebred male young adult/adult beagles were fasted overnight. Compound TP-1 (which can be prepared as described in the examples herein) or tapentadol (which can be prepared as described in PCT patent application No. WO28012046A1) were administered in approximately equimole amounts in water via oral gavage followed immediately by flushing the gavage tube with 5 mL water prior to withdrawal. Blood was collected from each animal predose and following dose administration at 0.25, 0.5, 1, 2, 3, 4, 6, 8, 10, 12 and 24 hours postdose. Blood samples were centrifuged and 0.8 mL plasma transferred to fresh tubes containing 8 μl formic acid; samples were vortexed, then immediately placed in dry ice and stored in a −80° C. freezer until analysis by HPLC/MS.
Table 5 and FIG. 6 provide tapentadol exposure results for dogs administered Compound TP-1 or tapentadol. Results in Table 5 are reported for each group of four dogs as described in Example 11.

[3] = Plasma and cerebrospinal fluid penetration following IV administration to rats; format: in vivo, rat; conditions: for concentration at 2 min: male, Sprague Dawley, rat, in vivo, TP-1 10 mg/kg, tapentadol 4 mg/kg
Description: Compound TP-1 (which can be prepared as described in the examples herein) at a dose of 10 mg/kg, or tapentadol, at a dose of 4 mg/kg, were dissolved in saline and injected into the tail vein of 4 male Sprague Dawley rats. These doses represent approximately equimole amounts. After 2 minutes, the rats were anesthetized by carbon dioxide asphyxiation, blood samples were drawn and harvested for plasma by centrifugation at 5,400 rpm at 4° C. for 5 min, and 100 μl plasma was transferred from each sample into a fresh tube containing 2 μl of 50% formic acid. The CSF fluid was collected using a 22×1 inch gauge needle connected to polyurethane catheter type MRE-040 tubing (Braintree Scientific, Inc., Braintree, Mass.). The needle was inserted just below the nuchal crest at the area of the foramen magnum, and clear CSF fluid was collected into the catheter and transferred into a collection tube. The CSF samples were centrifuged at 5,400 rpm at 4° C. for 5 min, and 100 μl CSF fluid was transferred from each sample into a fresh tube. The plasma and CSF samples were immediately placed in dry ice and then stored in a −80° C. freezer until analysis by high performance liquid chromatography/mass spectrometry (HPLC/MS). In order to study Compound TP-1 and tapentadol plasma and CSF penetration over time, additional groups of 4 rats were administered compounds as described above and anesthetized at specified time points. Plasma and CSF were collected and analyzed as described above.
Results in Table 14 are reported, for each group of four rats, as mean concentrations of the indicated compounds in plasma or CSF. Table 14 also provides the plasma-to-CSF (plasma/CSF) partitioning coefficient, i.e., the ratio of concentration in the plasma to concentration in the CSF of the indicated compounds.

[4] = In vitro stability of Compound TP-1 to household chemicals and enzyme preparations; format: physicochemical
Description: Compound TP-1 (which can be prepared as described in the examples herein) was exposed at room temperature (RT) or 80° C. for either 1 or 24 hours (hr) to the following household chemicals: vodka (40% alcohol), baking soda (saturated sodium bicarbonate solution, pH 9), WINDEX® with Ammonia-D (pH 11) and vinegar (5% acetic acid). Compound TP-1 was also exposed to the following enzyme-containing compositions at RT for 1 or 24 hr: GNC® Super Digestive (2 capsules of GNC Super Digestive Enzymes dissolved in 5 mL of water), tenderizer (Adolf's meat tenderizer, primarily papain, dissolved in water to a concentration of 0.123 g/mL to approximate the concentration of a marinade given on the bottle label), and subtilisn (8 tablets of ULTRAZYME® contact lens cleaner (Advanced Medical Optics, Milpitas, Calif.) dissolved in 4 mL water). Samples were incubated as described and aliquots removed at 1 hr and 24 hr and stabilized by adding each to a solution of 50% or 100% of 85% phosphoric acid solution to achieve a final pH of less than or equal to pH 4. The stabilized aliquots were then diluted 4- to 6-fold with water, vortex-mixed and applied to HPLC.
The solid black bars indicate the percentage of Compound TP-1 remaining after exposure, and the lightly shaded bars with a black outline indicate the percentage conversion of Compound TP-1 to tapentadol.

human μ-opioid receptor = human μ-opioid receptor (Homo sapiens, UniProt P35372); experiment: In vitro human μ-opioid receptor binding assay ([3H]DAMGO, recombinant HEK-293 cells); design: expressed in transfected cells; host or cells: HEK-293; conditions: relative to tapentadol
Description: The general procedure follows the protocol described by J.-B. Wang, et al, 1994, FEBS Lett. 338, 217-222. More specifically, the assays included tapentadol or Compound TP-1 (which can be prepared as described in the examples herein) as well as recombinant HEK-293 cells expressing the human μ-opioid receptor on their cell surfaces, reference compound [d-Ala^2,N-Me-Phe^4,Gly^5−ol]-enkephalin (DAMGO), radioligand [^3H]DAMGO (0.5 nM) and non-specific ligand naloxone (10 uM). The reaction mixtures were incubated at 22° C. for 2 hr. The samples were then submitted to scintillation counting.
In these assays, the specific binding of a test compound to the receptor is defined as the difference between the total binding and the non-specific binding determined in the presence of an excess of unlabelled ligand. Results are expressed as a percent of control of specific binding and as a percent inhibition of control specific binding obtained in the presence of test compounds. The IC50 values (concentration of competing ligand required for 50% inhibition of [^3H]DAMGO binding), and Hill coefficients (nH) were determined by non-linear regression analysis of competition curves using Hill equation curve fitting.

Sequence of human μ-opioid receptor (P35372 whole entry): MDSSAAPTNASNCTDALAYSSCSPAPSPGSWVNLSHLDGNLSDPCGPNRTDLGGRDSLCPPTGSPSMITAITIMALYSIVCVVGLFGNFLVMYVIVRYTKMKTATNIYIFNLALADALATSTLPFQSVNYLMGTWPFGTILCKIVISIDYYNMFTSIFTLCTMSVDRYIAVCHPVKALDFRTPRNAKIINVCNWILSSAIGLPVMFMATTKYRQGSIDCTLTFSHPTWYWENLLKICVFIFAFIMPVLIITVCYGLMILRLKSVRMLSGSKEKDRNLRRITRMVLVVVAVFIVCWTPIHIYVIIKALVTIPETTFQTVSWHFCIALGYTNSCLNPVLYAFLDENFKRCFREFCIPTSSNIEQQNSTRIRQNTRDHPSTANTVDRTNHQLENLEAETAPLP

With CC[C@@H](c1cccc(OC(=O)N(C)CCNC(=O)[C@H](CCCNC(=N)N)NC(=O)CC(=O)O)c1)[C@@H](C)CN(C)C [Compound TP-1, N—[(S)-1-(2-{[3-((1R,2R)-3-dimethylamino-1-ethyl-2-methyl-propyl)-phenoxycarbonyl]-methyl-amino}-ethylcarbamoyl)-4-guanidino-butyl]-malonamic acid] the “plasma concentrations of tapentadol versus prodrug dose” value ([1]; 5 to 50 mg/kg) was “increase proportionally”, the “tapentadol plasma concentration profile compared to administration of tapentadol” value ([1]; approximately equimole amounts) was “suppressed Cmax and delayed Tmax” and the “tapentadol PK profile compared to administration of tapentadol” value [2] was “delayed Tmax and increased AUC”. The “relative plasma/CSF partitioning coefficient of Compound TP-1 to tapentadol (fold less CSF-penetrant)” value ([3]; 671/10.4) was “about 64 fold”, the concentration at 2 min ([3]; rats, IV, 2 minutes after dosing, read-out: Compound conc. in CSF) was 65.3 ng/mL and the concentration at 2 min ([3]; rats, IV, 2 minutes after dosing, read-out: Compound conc. in Plasma) was 43800 ng/mL. For the same molecule, the Plasma/CSF partitioning coefficient ([3]; rats, IV, 2 minutes after dosing, ratio of concentration in plasma to concentration in CSF) was 671, the conversion to tapentadol ([4]; all other conditions (household chemicals at RT or 80° C., enzyme preparations at RT, 1 or 24 hr)) was “less than 10%” and the conversion to tapentadol ([4]; sodium bicarbonate at 80° C. or Windex at 80° C. for 24 hr) was 10-20%. For the same molecule, the “affinity for the μ-opioid receptor, fold less than that of tapentadol” value (human μ-opioid receptor) was “at least 200 fold”.

Source: patent publication US9238020B2, “Compositions comprising enzyme-cleavable phenol-modified tapentadol prodrug” (priority 2010, dated 2016)
